Laboratory results from PubChem BioAssay (NCI).
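These data come from cells grown in 96-well plates and exposed to compound for 48 hours at five concentrations. GI50: concentration for 50% inhibition of growth. TGI: concentration producing complete growth inhibition.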

Experiments:
Assay in all cases: growth of human tumour cells (NCI), 48 h
SR leukemia = system: SR leukemia
IGROV1 ovarian = system: IGROV1 ovarian
NCI-H23 lung = system: NCI-H23 lung
CCRF-CEM leukemia = system: CCRF-CEM leukemia
M14 melanoma = system: M14 melanoma
SNB-75 CNS = system: SNB-75 CNS
SF-268 CNS = system: SF-268 CNS
SNB-19 CNS = system: SNB-19 CNS
PC-3 prostate = system: PC-3 prostate
MCF7 breast = system: MCF7 breast

CCCCN(CCCC)C(=O)C(=O)C(C(=O)C(=O)OC)c1nc2ccccc2o1 (stereo unspecified)
TGI (SR leukemia): > 100 µM
TGI (IGROV1 ovarian): > 100 µM
TGI (NCI-H23 lung): > 100 µM
TGI (CCRF-CEM leukemia): > 100 µM
TGI (M14 melanoma): > 100 µM
TGI (SNB-75 CNS): > 100 µM
TGI (SF-268 CNS): > 100 µM
TGI (SNB-19 CNS): > 100 µM

CN1C(=O)CNS1(=O)=O
TGI (SR leukemia): > 100 µM
TGI (IGROV1 ovarian): > 100 µM
TGI (NCI-H23 lung): > 100 µM
TGI (CCRF-CEM leukemia): > 100 µM
TGI (M14 melanoma): > 100 µM
TGI (SNB-75 CNS): > 100 µM
TGI (SF-268 CNS): > 100 µM
TGI (SNB-19 CNS): > 100 µM

CCOC(=O)c1c2c(n(Cc3ccccc3)c1C)-c1nc[nH]c1C(=O)C2=O
GI50 (SR leukemia): 1.29 µM
TGI (SR leukemia): 3.6 µM
GI50 (IGROV1 ovarian): 16.7 µM
TGI (IGROV1 ovarian): 30.6 µM
GI50 (CCRF-CEM leukemia): 1.57 µM
TGI (CCRF-CEM leukemia): 7.87 µM
GI50 (M14 melanoma): 21.4 µM
TGI (M14 melanoma): 37.9 µM
GI50 (SNB-75 CNS): 4.13 µM
TGI (SNB-75 CNS): 16.2 µM
GI50 (SF-268 CNS): 17.1 µM
TGI (SF-268 CNS): 31.2 µM
GI50 (SNB-19 CNS): 17 µM
TGI (SNB-19 CNS): 30.7 µM

N#CCC(=O)N/N=C(/C(=O)Nc1ccccc1)C1C(=O)N(c2ccccc2)N=C1N (stereo unspecified)
TGI (SR leukemia): > 100 µM
TGI (IGROV1 ovarian): > 100 µM
TGI (NCI-H23 lung): > 100 µM
TGI (CCRF-CEM leukemia): > 100 µM
TGI (M14 melanoma): > 100 µM
TGI (SNB-75 CNS): > 100 µM
TGI (SF-268 CNS): > 100 µM
TGI (SNB-19 CNS): > 100 µM

Cn1cnc([N+](=O)[O-])c1Sc1nccn1-c1ccccc1
TGI (SR leukemia): 62.3 µM
TGI (IGROV1 ovarian): > 100 µM
TGI (NCI-H23 lung): 79.6 µM
TGI (CCRF-CEM leukemia): > 100 µM
TGI (M14 melanoma): > 100 µM
TGI (SNB-75 CNS): > 100 µM
TGI (SF-268 CNS): > 100 µM
TGI (SNB-19 CNS): > 100 µM

S=c1sc2sc(=S)sc2s1
TGI (SR leukemia): > 100 µM
TGI (IGROV1 ovarian): > 100 µM
TGI (CCRF-CEM leukemia): > 100 µM
TGI (M14 melanoma): 59 µM
TGI (SNB-75 CNS): 82.6 µM
TGI (SF-268 CNS): > 100 µM
TGI (SNB-19 CNS): > 100 µM

CCOC(=O)c1sc(Nc2cc(Cl)ccc2Cl)nc1C
TGI (SR leukemia): > 100 µM
TGI (IGROV1 ovarian): > 100 µM
TGI (NCI-H23 lung): > 100 µM
TGI (SNB-75 CNS): > 100 µM
TGI (SF-268 CNS): > 100 µM
TGI (SNB-19 CNS): > 100 µM

COc1ncnn2ccc(-c3cnc4nc(C)n(Cc5nnc(C(C)F)o5)c4c3)c12 (stereo unspecified)
GI50 (SR leukemia): 0.156 µM
TGI (SR leukemia): 16 µM
GI50 (IGROV1 ovarian): 0.235 µM
TGI (IGROV1 ovarian): > 64.3 µM
GI50 (NCI-H23 lung): 0.109 µM
TGI (NCI-H23 lung): 0.597 µM
GI50 (CCRF-CEM leukemia): 0.11 µM
TGI (CCRF-CEM leukemia): > 74.6 µM
GI50 (M14 melanoma): 0.24 µM
TGI (M14 melanoma): > 40.5 µM
GI50 (SNB-75 CNS): 0.191 µM
TGI (SNB-75 CNS): 1.75 µM
GI50 (PC-3 prostate): 0.281 µM
TGI (PC-3 prostate): > 100 µM
GI50 (SF-268 CNS): 0.526 µM
TGI (SF-268 CNS): > 80.5 µM
GI50 (SNB-19 CNS): 0.198 µM
TGI (SNB-19 CNS): > 100 µM

O=C(O)c1cc(C(=O)C(=O)c2cc(C(=O)O)c(O)c3ccccc23)c2ccccc2c1O
TGI (IGROV1 ovarian): > 100 µM
TGI (MCF7 breast): > 100 µM
TGI (NCI-H23 lung): > 100 µM
TGI (M14 melanoma): > 100 µM
TGI (SNB-75 CNS): > 100 µM
TGI (PC-3 prostate): > 100 µM
TGI (SF-268 CNS): > 100 µM
TGI (SNB-19 CNS): > 100 µM

Cc1cn2c(/C=N/NC3=NCCN3)c(-c3ccc(Cl)c([N+](=O)[O-])c3)nc2s1
GI50 (MCF7 breast): 3.8 µM
TGI (MCF7 breast): > 50 µM
GI50 (NCI-H23 lung): 5.62 µM
TGI (NCI-H23 lung): 27 µM
GI50 (M14 melanoma): 1.06 µM
TGI (M14 melanoma): 2.17 µM
GI50 (PC-3 prostate): 1.65 µM
TGI (PC-3 prostate): 4.56 µM
GI50 (SNB-19 CNS): 1.48 µM
TGI (SNB-19 CNS): > 50 µM

Cc1cc2c(=O)cc(-c3ccc(Cl)c(Cl)c3)oc2c(C(=O)O)c1C
TGI (IGROV1 ovarian): > 100 µM
TGI (NCI-H23 lung): > 100 µM
TGI (CCRF-CEM leukemia): > 100 µM
TGI (M14 melanoma): > 100 µM
TGI (SNB-75 CNS): > 100 µM
TGI (SF-268 CNS): > 100 µM
TGI (SNB-19 CNS): > 100 µM

Cc1ccc(C)c(N2C(=O)C(=O)C(c3nc4ccccc4s3)C(=O)C2=O)c1
TGI (IGROV1 ovarian): > 100 µM
TGI (NCI-H23 lung): > 100 µM
TGI (CCRF-CEM leukemia): > 100 µM
TGI (M14 melanoma): > 100 µM
TGI (SNB-75 CNS): > 100 µM
TGI (SF-268 CNS): > 100 µM
TGI (SNB-19 CNS): > 100 µM

Cc1cc2c(cc1C)[n+](=O)c(C(=O)CC(=O)C(=O)Nc1ccccc1C)c(C)n2[O-]
TGI (SR leukemia): > 100 µM
TGI (IGROV1 ovarian): > 100 µM
TGI (NCI-H23 lung): > 100 µM
TGI (CCRF-CEM leukemia): > 100 µM
TGI (M14 melanoma): > 100 µM
TGI (SNB-75 CNS): > 100 µM
TGI (SF-268 CNS): > 100 µM
TGI (SNB-19 CNS): > 100 µM

COC(=O)c1oc([N+](=O)[O-])c(-c2ccccc2)c1-c1ccccc1
TGI (IGROV1 ovarian): > 100 µM
TGI (NCI-H23 lung): > 100 µM
TGI (CCRF-CEM leukemia): > 100 µM
TGI (M14 melanoma): > 100 µM
TGI (SNB-75 CNS): > 100 µM
TGI (SF-268 CNS): > 100 µM
TGI (SNB-19 CNS): > 100 µM

O=[N+]([O-])c1cccc(C=NC23CC4CC(CC(C4)C2)C3)c1
TGI (IGROV1 ovarian): > 100 µM
TGI (NCI-H23 lung): > 100 µM
TGI (CCRF-CEM leukemia): > 100 µM
TGI (M14 melanoma): > 100 µM
TGI (SNB-75 CNS): > 100 µM
TGI (SF-268 CNS): > 100 µM
TGI (SNB-19 CNS): > 100 µM

CCOc1ccc(N=C2NC(=O)C(CC(=O)Nc3ccc(Cl)cc3Cl)S2)cc1 (stereo unspecified)
TGI (IGROV1 ovarian): > 100 µM
TGI (NCI-H23 lung): > 100 µM
TGI (CCRF-CEM leukemia): > 100 µM
TGI (M14 melanoma): > 100 µM
TGI (SNB-75 CNS): > 100 µM
TGI (SF-268 CNS): > 100 µM
TGI (SNB-19 CNS): > 100 µM

COC1OC(CO)C(O)C(NC(=O)N(C)N=O)C1O (stereo unspecified)
TGI (SR leukemia): > 100 µM
TGI (IGROV1 ovarian): > 100 µM
TGI (NCI-H23 lung): > 100 µM
TGI (CCRF-CEM leukemia): > 100 µM
TGI (M14 melanoma): > 100 µM
TGI (SNB-75 CNS): > 100 µM
TGI (SF-268 CNS): > 100 µM
TGI (SNB-19 CNS): > 100 µM
